Measured values taken from ChEMBL document CHEMBL6078642, “Design, Synthesis, and Activity Evaluation of BRD4 PROTAC Based on Alkenyl Oxindole-DCAF11 Pair” (J Med Chem, 2024).
The source made the active and inactive calls. The calls are words filed in the database; no cut-off is given here.

Tests used:
MDA-MB-231 [1] = assay: Induction of apoptosis in human MDA-MB-231 cells assessed as increase in cleaved caspase-7 level by immunoblot analysis; assay type: functional, cell-based
MDA-MB-231 [2] = assay: Antiproliferative activity against human MDA-MB-231 cells assessed as reduction in cell viability incubated for 2 days in presence of JQ1 by CCK8 assay; assay type: functional, cell-based; conditions: MDA-MB-231, 48 h
MDA-MB-231 [3] = assay: Induction of apoptosis in human MDA-MB-231 cells assessed as increase in cleaved PARP level by immunoblot analysis; assay type: functional, cell-based
MDA-MB-231 [4] = assay: Antiproliferative activity against human MDA-MB-231 cells assessed as reduction in cell viability incubated for 2 days by CCK8 assay; assay type: functional, cell-based; conditions: MDA-MB-231, 48 h
MDA-MB-468 [5] = assay: Antiproliferative activity against human MDA-MB-468 cells assessed as reduction in cell viability incubated for 2 days in presence of JQ1 by CCK8 assay; assay type: functional, cell-based; conditions: MDA-MB-468, 48 h
DCAF11-BRD4 = DCAF11-BRD4 (Homo sapiens, UniProt O60885+Q8TEB1); assay: PROTAC activity at DCAF11/BRD4 in human MDA-MB-231 cells assessed as induction of BRD4 degradation at 10 uM incubated for 12 hrs by immunoblot analysis; assay type: cell-based
Chain of DCAF11-BRD4 (Q8TEB1 whole entry, looked up, other chains not shown): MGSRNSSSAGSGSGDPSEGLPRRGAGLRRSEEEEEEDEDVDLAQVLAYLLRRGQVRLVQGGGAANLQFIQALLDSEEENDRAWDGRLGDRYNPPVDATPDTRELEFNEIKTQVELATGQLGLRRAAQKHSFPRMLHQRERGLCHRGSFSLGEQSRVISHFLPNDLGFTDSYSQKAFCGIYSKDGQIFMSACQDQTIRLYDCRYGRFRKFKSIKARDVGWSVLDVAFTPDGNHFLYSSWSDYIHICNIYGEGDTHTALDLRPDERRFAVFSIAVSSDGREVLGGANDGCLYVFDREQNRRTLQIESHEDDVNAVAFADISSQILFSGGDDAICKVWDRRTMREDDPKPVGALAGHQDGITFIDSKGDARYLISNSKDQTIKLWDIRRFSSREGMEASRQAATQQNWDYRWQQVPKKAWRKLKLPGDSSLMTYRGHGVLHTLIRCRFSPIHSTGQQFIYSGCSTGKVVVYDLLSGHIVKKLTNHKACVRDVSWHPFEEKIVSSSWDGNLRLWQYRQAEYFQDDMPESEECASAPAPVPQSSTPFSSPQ

MDA-MB-468 [6] = assay: Antiproliferative activity against human MDA-MB-468 cells assessed as reduction in cell viability incubated for 2 days by CCK8 assay; assay type: functional, cell-based; conditions: MDA-MB-468, 48 h
MDA-MB-231 [7] = assay: Antiproliferative activity against human MDA-MB-231 cells assessed as reduction in cell viability incubated for 2 days in presence of tert-butyl 2-(4-methyl-2-((2-oxo-6-(trifluoromethyl)indolin-3-ylidene)methyl)phenoxy)acetate by CCK8 assay; assay type: functional, cell-based; conditions: MDA-MB-231, 48 h
MDA-MB-468 [8] = assay: Antiproliferative activity against human MDA-MB-468 cells assessed as reduction in cell viability incubated for 2 days in presence of tert-butyl 2-(4-methyl-2-((2-oxo-6-(trifluoromethyl)indolin-3-ylidene)methyl)phenoxy)acetate by CCK8 assay; assay type: functional, cell-based; conditions: MDA-MB-468, 48 h
MDA-MB-231 [9] = assay: Induction of BRD4 degradation in human MDA-MB-231 cells at 10 uM incubated for 12 hrs by immunoblot analysis; assay type: cell-based

IC50 (MDA-MB-231 [2]) [µM]	IC50 (MDA-MB-468 [5]) [µM]	Activity (DCAF11-BRD4)	Compound	Activity (MDA-MB-231 [1])	Activity (MDA-MB-231 [3])	IC50 (MDA-MB-231 [4]) [µM]	IC50 (MDA-MB-468 [6]) [µM]	IC50 (MDA-MB-231 [7]) [µM]	IC50 (MDA-MB-468 [8]) [µM]	Activity (MDA-MB-231 [9])
3.71	10	inactive	Cc1ccc(OCC(=O)OC(C)(C)C)c(/C=C2\C(=O)Nc3cc(C(F)(F)F)ccc32)c1	inactive	inactive	11.4	26.6			
			Cc1sc2c(c1C)C(c1ccc(Cl)cc1)=N[C@@H](CC(=O)O)c1nnc(C)n1-2	inactive	inactive	5.13	25.9	3.71	10	inactive
